Data set [1] has as its system nerve cells (cerebellum of a rat). Briefly: Protection of cultured nerve cells (cerebellum) against L-glutamic acid. As to conditions: L-glutamic acid 100 μM; for viability at 5 µg/mL / viability at 1 µg/mL / viability at 10 µg/mL: Rattus norvegicus, cerebellum, read-out: survival ratio of the cells (SR); for viability at 5 µg/mL: test compound 5 μg/ml; for inhibition of the death of nerve cells induced by L-glutamic acid: cerebellum (Tables 4 and 5); for viability at 1 µg/mL: test compound 1 μg/ml; for viability at 10 µg/mL: test compound 10 μg/ml. Format: cell-based. The protocol: (§1) The septal area was taken out from the brain of a fetal rat. The cells were dispersed using trypsin and deoxyribonuclease and were cultured for one day on a Pit medium (Dulbecco modified Eagle medium or Ham F12 medium, commercial products of Nissui Seiyaku K. K., Japan) containing 5% horse serum and 5% fetal calf serum. After adding cytosine arabinoide (10μM) to the medium, the culturing was continued for 10 days.
(§2) L-glutamic acid (100 μM) and ES-242-1 were added to the cultured broth to measure the survival ratio of the nerve cells. For control purposes, a similar procedure was carried out with the exception that glutamic acid (100μM) and/or ES-242-1 were replaced by dimethylsulfoxide (DMSO) (0.5%). The cells which survived were counted by the fluorescence-dying method with reference to the Costa et al. method [Proc. Natl. Acad. Sci., U.S.A., 85, 7351-7355 (1988)].
(§3) The results shown in the following Table 3 were obtained in a manner similar to that described above except the cerebellum was used instead of the septal area. In the following tables, the term "GA" denotes L-glutamic acid (unit 100μM) and the term "SR" denote the survival ratio of the cells (%).
The results shown in the following Tables 4 and 5 were obtained by a procedure similar to that described in Experiment 1 above with the exception that the cerebellum of a rat and ES-242-2 or ES-242-5 were respectively used instead of the septal area and ES-242-1.

Data set [2] concerns nerve cells (septal area of the brain of a fetal rat). Briefly: Protection of cultured nerve cells (septal area) against L-glutamic acid. Particulars: L-glutamic acid 100 μM. Format: cell-based. The protocol: Protection of cultured nerve cells
as §1, §2, §3

Data set [3] has as its system CAI area neurons of the hippocampus. Briefly: Protection of nerve cells from ischaemic injury. It is filed as in vivo, Mongolian gerbils. An excerpt: Ischaemic injury of the nervous system was induced in the CAI area of the hippocampus of Mongolian gerbils by closing and reperfusing two cartoid arteries with reference to the Kirino et al method [Cerebral Nerve, Vol. 38, No. 12, 1157-1163 (1986)] as follows.
On each occasion, the test compound was suspended in a physiological solution of sodium chloride. The animal (body weight 60-70 g) was anesthetized with ether. The left and right common cartoid arteries were exposed through midcervical vertical skin incision and the anesthetic was discontinued. The cartoid arteries on both sides were occluded for 5 minutes using aneurism clips. Immediately after this, a given amount (100 mg/kg) of Compound ES-242-1 was given orally to the animal. One week after this, the animal was fixed by transcardic perfusion. Immediately after this, the brain was removed from the animal to prepare a sample of the histologic section containing the CIA area of the hippocampus. The number of normal cells of the CAI area neurons per 1 mm linear length was counted.
The above-mentioned treatment is hereinafter referred to as the ischaemic treatment.
For control purposes, a group of the animals were given a physiological solution of sodium chloride only, without ischaemic treatment. […]

Another data set is described as follows: Solubility. Format: physicochemical.
Data set [4] concerns the target N-methyl-D-aspartic acid receptor. Description: Binding activity to N-methyl-D-aspartic acid receptor ([3H]TCP binding in rat brain membranes). Particulars: rat brain membranes (crushed cerebrum). As for the experimental part:
The binding activity of Compounds ES-242 to N-methyl-D-aspartic acid receptor was measured as follows.
With reference to the modified method of Vignon et al [Brain Research, 280, 194-197 (1983)], the binding activity of ES-242 to N-[1-(2-thienyl) cyclohexyl]-3,4-[^3 H]piperidine ([^3 H]TCP) in rat brain membranes was measured by the use of a crushed cerebrum of a rat and expressed by IC50 viz. a concentration required for 50% inhibition of the binding ability to the sample.

The conditions of data set [5]: literature report; cited from earlier work.
Data set [6] deals with N-methyl-D-aspartic acid receptors. Particulars: literature report; cited from earlier work.
The test system of the next data set is nervous system. As to conditions: literature report; cited from earlier work.
The conditions of data set [7]: literature report; cited from earlier work. This is another data set of the same source.
[8] abbreviates: Table 5, control 88, GA alone 40.
Setting [9] is: Table 4, control 95, GA alone 56.

Where two headings read alike, the source gives them in different places.

For `COc1cc(OC)c2c(O)c3c(c(-c4c5c(c(O)c6c(OC)cc(OC)cc46)COC(C)C5OC(C)=O)c2c1)CC(C)OC3` (centres unmarked) [ES-242-1], the viability at 5 µg/mL in data set [1] (Table 3, control 90, GA alone 44) is 75%. Further, in [2] (septal area and cerebellum (Tables 2 and 3)), the “inhibition of the death of nerve cells induced by L-glutamic acid” value (“inhibition of the death … by L-glutamic acid” for short) was “inhibited the death of the nerve cells”. Further, the viability at 0.1 µg/mL in data set [2] (Rattus norvegicus, septal area, test compound 0.1 μg/ml, control 87, GA alone 5, read-out: survival ratio of the cells (SR)) came to 23%. Also, in [2] (Rattus norvegicus, septal area, test compound 0.5 μg/ml, control 87, GA alone 5, read-out: survival ratio of the cells (SR)), the viability at 0.5 µg/mL was determined as 73%. For the same compound, the “number of normal cells in average ± standard deviation (N)” value in data set [3] (100 mg/kg oral immediately after 5 min occlusion, one week, n=5, normal control 100 ± 4.7, ischaemic control 0 ± 0) amounted to 24.4 ± 20.6 cells/mm. Further, the “protecting activity to ischaemic injury of the nervous system” value in data set [3] (100 mg/kg oral, gerbils) is on record as “exhibited a significant protecting activity”. Besides, the Solubility entry in “Solubility” (methanol, acetone, ethyl acetate and chloroform) is “Readily soluble”; in the data set “Solubility” (water and n-hexane), “Insoluble”. The “IC50 (50% inhibition of [3H]TCP binding)” value in data set [4] came to 0.1 µg/mL.
Regarding `COc1cc(OC)c2c(O)c3c(c(-c4c5c(c(O)c6c(OC)cc(OC)cc46)COC(C)C5O)c2c1)C(O)C(C)OC3` (centres unmarked) [ES-242-4], the “IC50 (50% inhibition of [3H]TCP binding)” value in [4] was 14.6 µg/mL.
Take `COc1cc(OC)c2c(O)c3c(c(-c4c5c(c(O)c6c(OC)cc(OC)cc46)COC(C)C5O)c2c1)CC(C)OC3` (centres unmarked) [ES-242-5]: in [1], the “inhibition of the death … by L-glutamic acid” value is “inhibit the death of the nerve cells”. Also, in data set [1] (setting [8]), the viability at 1 µg/mL came to 68%, the viability at 5 µg/mL was 73% and the viability at 10 µg/mL came to 79%. The “IC50 (50% inhibition of [3H]TCP binding)” value in data set [4] was 0.6 µg/mL.
For `COc1cc2c(-c3c(OC)c(C)c(O)c4c(O)c5c(cc34)C[C@](C)(O)CC5=O)c3c(c(O)c2c(O)c1C)C(=O)C[C@@](C)(O)C3` [Singueanol II], the anti-aspartic activity entry in data set [5] is reported as “exhibit anti-aspartic”. Moreover, in data set [6], the “antagonism against N-methyl-D-aspartic acid receptors” value is recorded as “nor antagnostic against N-methyl-D-aspartic acid receptors”. Moreover, the “capability of protecting the nervous system” value with nervous system was “neither capable of protecting the nervous system”. The anti-bacterial activity entry in [7] was “exhibit anti-aspartic and anti-bacterial activity”.
For the compound `COc1cc(OC)c2c(O)c3c(c(-c4c5c(c(O)c6c(OC)cc(OC)cc46)COC(C)C5OC(C)=O)c2c1)C(OC(C)=O)C(C)OC3` (centres unmarked) [ES-242-2], the “inhibition of the death … by L-glutamic acid” value in data set [1] is on record as “inhibit the death of the nerve cells”. Besides, in data set [1] (setting [9]), the viability at 1 µg/mL was found to be 44% and the viability at 10 µg/mL was found to be 88%. For the same compound, the viability at 5 µg/mL in [2] (Rattus norvegicus, septal area, test compound 5 μg/ml, control 87, GA alone 5, read-out: survival ratio of the cells (SR)) was 74%. Besides, in data set [2] (Rattus norvegicus, septal area, test compound 50 μg/ml, control 87, GA alone 5, read-out: survival ratio of the cells (SR)), the viability at 50 µg/mL was 74%. For the same compound, in data set [4], the “IC50 (50% inhibition of [3H]TCP binding)” value was 1.9 µg/mL.
With `COc1cc(OC)c2c(O)c3c(c(-c4c5c(c(O)c6c(OC)cc(OC)cc46)COC(C)C5OC(C)=O)c2c1)C(O)C(C)OC3` (centres unmarked) [ES-242-3], in data set [4], the “IC50 (50% inhibition of [3H]TCP binding)” value was 1.8 µg/mL.

The values are drawn from patent US5081264A, “Bioxanthracene derivatives” (Kyowa Hakko Kabushiki Kaisha, priority 1989, dated 1992).
